Here are results for 19 compounds from patent EP0074229A1, “Triazole gastric anti-secretory agents” (PFIZER INC., priority 1981, dated 1983).

In one test the test system is gastric acid secretion. The test can be described thus: gastric antisecretory activity in pentagastrin-stimulated Heidenhain pouch dogs. Format: in vivo. The following applies: conscious Heidenhain pouch dogs, pentagastrin infusion, drug given intravenously; for inhibition in vivo at up to 10 mg/kg: Canis lupus familiaris, iv, doses of 10 mg/kg or less, lowest acid output after drug vs mean output before drug; for inhibition of acid: dosage of 1 mg/kg. An excerpt: The activity of the compounds of the present invention as antisecretory agents and histamine-H2 antagonists may be determined by standard pharmacological tests, including for example (1) measuring their ability to antagonize the actions of histamine which are not blocked by an antihistamine such as mepyramine and (2) measuring their ability to inhibit gastric acid secretion in the stomachs of Heidenhain pouch dogs that had previously been treated with pentagastrin in order to stimulate the secretion of gastric acid.
The gastric antisecretory activity of compounds of the present invention was determined in overnight fasted, conscious Heidenhain pouch dogs. Pentagastrin (Peptavlon-Ayerst) was used to stimulate acid output by continuous infusion into a superficial leg vein at doses earlier determined to stimulate near maximal acid output from the gastric pouch. Gastric juice was collected at 30 minute intervals following the start of a pentagastrin infusion and measured to the nearest 0.1 ml. Ten collections were taken for each dog during an experiment. Acid concentration was determined by titrating 1.0 ml of gastric juice to pH 7.4 with 0.1N sodium hydroxide using an Autoburette and a glass electrode pH meter (Radiometer).
[…] Gastric acid . antisecxetory effects were calculated by comparing the lowest acid output after drug administration with the mean acid output immediately before drug.

A further test deals with T1, H2-receptor (Cavia porcellus, UniProt P47747).
T1 construct: from tissue; host or cells: isolated guinea pig right atria
T1 sequence (P47747 whole entry): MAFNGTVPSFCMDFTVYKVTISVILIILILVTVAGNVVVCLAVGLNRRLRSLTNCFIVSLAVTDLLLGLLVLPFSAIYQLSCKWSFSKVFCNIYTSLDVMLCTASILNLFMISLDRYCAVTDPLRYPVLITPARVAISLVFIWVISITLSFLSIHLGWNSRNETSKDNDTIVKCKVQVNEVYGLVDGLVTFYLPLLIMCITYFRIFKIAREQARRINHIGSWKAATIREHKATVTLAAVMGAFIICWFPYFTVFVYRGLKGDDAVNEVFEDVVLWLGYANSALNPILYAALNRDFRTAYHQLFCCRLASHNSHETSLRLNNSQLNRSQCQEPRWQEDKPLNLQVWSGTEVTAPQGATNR
The test can be described thus: histamine-H2 antagonist activity in isolated guinea pig right atria (histamine dose-response, dose-ratios, pA2). The note with it: antagonism of histamine-stimulated atrial rate, Krebs-Henseleit buffer pH 7.4, 32°. Format: cell-based, Guinea pigs. The protocol:
The histamine-H2 antagonist activity of compounds of the present invention was determined by the following procedure: • Guinea pigs are killed rapidly with a blow to the head, the heart removed and the right atria dissected free. […] Individual atrial contractions are followed with a force-displacement transducer connected to a cardiotachometer and Grass polygraph recorder. After obtaining a dose-response curve to histamine, the bath containing each atrium is flushed several times with fresh buffer and the atria re-equilibrated to basal rates. Following the return to basal rate, test compounds are added at selected final concentrations and the histamine dose-response curve is again determined in the presence of antagonist. Results are-expressed as dose-ratios, the ratio of histamine concentrations required to produce one-half of maximal stimulation in the presence and absence of antagonist, and the apparent dissociation constant of the H2-receptor antagonist pA2 is determined.

Regarding `CNc1cc(-c2nc(C)n[nH]2)ccn1` [Example 2, 3'-Methyl-5'-(2-methylamino-4-pyridyl)-1',2',4'-triazole], in the test with gastric acid secretion, the inhibition in vivo at up to 10 mg/kg is more than 50%.

For the compound `CCNc1cc(-c2nc(C)n[nH]2)ccn1` [Example 3, 3'-Methyl-5'-(2-ethylamino-4-pyridyl)-1',2',4'-triazole], at H2-receptor, the Kb was not above 1000 nM. In the test on gastric acid secretion, this compound came in with an inhibition in vivo at up to 10 mg/kg of more than 50%. On to `CCNc1cc(-c2nc(CC)n[nH]2)ccn1` [Example 6, 3'-Ethyl-5'-(2-ethylamino-4-pyridyl)-1',2',4'-triazole hemi-hydrate], for which the Kb at H2-receptor is not above 1000 nM. In turn, `CCNc1cc(-c2nc(CO)n[nH]2)ccn1` [Example 8, 3'-Hydroxymethyl-5'-(2-ethylamino-4-pyridyl)-l',2',4'-triazole] showed an inhibition in vivo at up to 10 mg/kg in the test with gastric acid secretion of more than 50%.

As for `CCNc1cc(-c2nc(CCNC(=O)C=Cc3cnc(C)s3)n[nH]2)ccn1` [Example 12, N-[3-(2-methyl-5-thiazolyl)acryloyl]-2-[3'-(5'-(2-ethylamino-4-pyridyl)-1',2',4'-triazolyl)]ethylamine], the Kb at H2-receptor was not above 1000 nM. In addition, in the test on gastric acid secretion, the inhibition in vivo at up to 10 mg/kg was more than 50% and the inhibition of acid entry is recorded as “greater than 50%”. Take `CCNc1cc(-c2nc(CCNC(=O)COc3ccccc3)n[nH]2)ccn1` [Example 17, N-Phenoxyacetyl-2-(3'-(5'-(2-ethylamino-4-pyridyl)-1',2',4'-triazolyl))'ethylamine hemihydrate]: the inhibition in vivo at up to 10 mg/kg with gastric acid secretion was more than 50%. The same measure, in the same setting: for `CCNc1cc(-c2n[nH]c(CCNC(=O)CCc3ccccc3)n2)ccn1` [Example 20, N-(3-Phenylpropionyl)-2-(3'-(5'-(2-ethylamino-4-pyridyl)-1',2',4'-triazolyl))ethylamine] the value was more than 50%. The same measure, in the same setting: for `CCNc1cc(-c2n[nH]c(CCNC(=O)COc3cccnc3)n2)ccn1` [Example 21, N-(3-Pyridyloxyacetyl)-2-(3'-(5'-(2-ethylamino-4-pyridyl)-1',2',4'-triazolyl))ethylamine bishydrate] the value was more than 50%; for `CCNc1cc(-c2n[nH]c(CCNC(=O)c3ccc(O)nc3)n2)ccn1` [Example 24, N-(6-Hydroxynicotinoyl)-2-(3'-(5'-(2-ethylamino-4-pyridyl)-1',2',4'-triazolyl))ethylamine monohydrate], more than 50%. Still for that read-out and setting: the value for `CCNc1cc(-c2n[nH]c(CCNC(=O)c3cccc(OC)c3)n2)ccn1` [Example 26, N-(3-Methoxybenzoyl)-2-(3'-(5'-(2-ethylamino-4-pyridyl)-1',2',4'-triazolyl))ethylamine] was more than 50%.

Consider `CCNc1cc(C(=O)NCCc2nc(-c3ccnc(NCC)c3)n[nH]2)ccn1` [Example 27, N-(2-Ethylaminoisonicotinoyl)-2-(3'-(5'-(2-ethylamino-4-pyridyl)-1',2',4'-triazolyl))ethylamine], for which the inhibition in vivo at up to 10 mg/kg in the test with gastric acid secretion is more than 50%.

For the compound `CCNc1cc(-c2n[nH]c(CCNC(=O)c3ccc(CN(C)C)o3)n2)ccn1` [Example 28], the Kb on H2-receptor was not above 1000 nM. Same read-out and setting: the value for `CCNc1cc(-c2n[nH]c(CCNC(=O)c3csc(N=C(N)N)n3)n2)ccn1` [Example 29] was not above 1000 nM. As for `CCNc1cc(-c2n[nH]c(CCNC(=O)CCc3cccnc3)n2)ccn1` [Example 31, N-(3-Pyridylpropionoyl)-2-(3'-(5'-(2-ethylamino-4-pyridyl)-1',2',4'-triazolyl))ethylamine], the Kb on H2-receptor is not above 1000 nM. Besides, the inhibition in vivo at up to 10 mg/kg in the test with gastric acid secretion was more than 50%. In the case of `CCNc1cc(-c2n[nH]c(CCNC(=O)c3cccnc3)n2)ccn1` [Example 34, N-Nicotinoyl-2-(3'-(5'-(2-ethylamino-4-pyridyl)-1',2',4'-triazolyl))ethylamine], the Kb at H2-receptor is not above 1000 nM. In turn, `CCNc1cc(-c2n[nH]c(CCNC(=O)c3ccncc3)n2)ccn1` [Example 35, N-(Isonicotinoyl)-2-(3'-(5'-(2-ethylamino-4-pyridyl)-1',2',4'-triazolyl))ethylamine] came in with an inhibition in vivo at up to 10 mg/kg with gastric acid secretion of more than 50%. `CCNc1cc(-c2n[nH]c(CCNC(N)=O)n2)ccn1` [Example 36, N-(2-(3'-(5'-(2-Ethylamino-4-pyridyl)-1',2',4'-triazolyl))-ethyl)urea hydrate] displayed an inhibition in vivo at up to 10 mg/kg with gastric acid secretion of more than 50%. For the compound `CCNc1cc(-c2n[nH]c(CCNC(=NC#N)NC)n2)ccn1` [Example 39, N-Cyano-N'-(2-(3'-(5'-(2-ethylamino-4-pyridyl)-1',2',4'-triazolyl))ethyl)-N"-methylguanidine], the Kb on H2-receptor is not above 1000 nM. Turning to `CCNc1cc(-c2n[nH]c(CCNC(=S)NC)n2)ccn1` [Example 41, N'-(2-(3'-(5'-(2-Ethylamino-4-pyridyl)-1',2',4'-triazolyl))-ethyl)-N'-methylthiourea], the Kb on H2-receptor is not above 1000 nM. In the test on gastric acid secretion, the inhibition of acid entry was “greater than 50%”.

One may read the inhibition in vivo as how much of the control response was suppressed. One may read the Kb as the affinity of an antagonist, worked out from how it opposes an agonist.
